Data: ChEMBL document CHEMBL4715699, “Design, synthesis and biological evaluation of 1,3,6-trisubstituted β-carboline derivatives for cytotoxic and anti-leishmanial potential” (Bioorg Med Chem Lett, 2016)
Calls of active or inactive are those of the source. No cut-off for these calls is given here.

How the values were obtained:
[1] = Solubility of the compound in 20% DMSO; assay type: physicochemical
Leishmania donovani = test: Antileishmanial activity against Leishmania donovani MHOM/80/IN/Dd8 promastigotes infected in THP-1 cells assessed as measured after 48 hrs by MTT assay; assay type: functional, organism-based
MCF7 [2] = test: Induction of apoptosis in human MCF7 cells at 10 uM measured after 6 hrs by Annexin V/Propidium iodide staining based confocal microscopy; assay type: functional, cell-based
HepG2 = test: Cytotoxicity against human HepG2 cells assessed as reduction in cell viability at 10 uM measured after 24 hrs by MTT assay relative to control; assay type: functional, cell-based; details: HepG2, 24 h
HeLa = test: Cytotoxicity against human HeLa cells assessed as reduction in cell viability at 10 uM measured after 24 hrs by MTT assay relative to control; assay type: functional, cell-based
A549 [3] = test: Induction of apoptosis in human A549 cells at 10 uM measured after 6 hrs by Annexin V/Propidium iodide staining based confocal microscopy; assay type: functional, cell-based
L132 = test: Cytotoxicity against human L-132 cells assessed as reduction in cell viability at 10 uM measured after 24 hrs by MTT assay relative to control; assay type: cell-based; details: L132, 24 h
MCF7 [4] = test: Cytotoxicity against human MCF-7 cells assessed as reduction in cell viability at 10 uM measured after 24 hrs by MTT assay relative to control; assay type: functional, cell-based; details: MCF7, 24 h
A549 [5] = test: Cytotoxicity against human A-549 cells assessed as reduction in cell viability at 10 uM measured after 24 hrs by MTT assay relative to control; assay type: functional, cell-based; details: A549, 24 h
THP-1 = test: Cytotoxicity against differentiated human THP-1 cells measured after 48 hrs by MTT assay; assay type: cell-based; details: THP-1, 48 h
[6] = Selectivity index, ratio of IC50 for differentiated human THP-1 cells to IC50 for Leishmania donovani MHOM/80/IN/Dd8 promastigotes; assay type: toxicity; details: differentiated THP-1 cells, read-out: Ratio IC50
[7] = Inhibition of IKK in human HeLa S3 cells using biotinylated IkaapaB-alpha by ELISA phosphorylation assay; assay type: cell-based
[8] = Inhibition of IKK (unknown origin); parameters: species or system Homo sapiens
[9] = Leishmania donovani, MHOM/80/IN/Dd8, THP-1, 48 h, read-out: IC50

Structure (SMILES)	solubility [1]	IC50 (Leishmania donovani)	IC50 (Leishmania donovani; [9]) [µM]	other results
COC(=O)c1cc2c([nH]c3ccc(NC(=O)Oc4ccc([N+](=O)[O-])cc4)cc32)c(C)n1	Insoluble	Nd(Insoluble)		
CCCCC(=O)Nc1ccc2[nH]c3c(C)nc(C(=O)OC)cc3c2c1			> 100	
COC(=O)c1cc2c([nH]c3ccc(NC(=O)c4cc(C(F)(F)F)cc(C(F)(F)F)c4)cc32)c(C)n1	Insoluble	Nd(Insoluble)		Activity (MCF7 [2]): Active; IC50 (HepG2): 6.15 µM; IC50 (HeLa): 5.3 µM; Activity (A549 [3]): Active; IC50 (L132): 11.2 µM; IC50 (MCF7 [4]): 13.4 µM; IC50 (A549 [5]): 15.5 µM
CCCCCCCCCCCC(=O)Nc1ccc2[nH]c3c(C)nc(C(=O)OC)cc3c2c1	Insoluble	Nd(Insoluble)		
COC(=O)c1cc2c([nH]c3ccc(NC(=O)c4cccs4)cc32)c(C)n1			> 100	
COC(=O)c1cc2c([nH]c3ccccc32)c(C)n1			9	IC50 (HepG2): 39.6 µM; IC50 (HeLa): 35.6 µM; IC50 (L132): 39.3 µM; IC50 (MCF7 [4]): 45 µM; IC50 (THP-1): > 100 µM; selectivity ratio [6]: > 11.1; IC50 (A549 [5]): 37.8 µM
Clc1cc2c([nH]c3cnccc32)c(Cl)c1OCC1CC1				IC50 [7]: 0.08 µM
CCCCCCCCCCCCCCCCOP(=O)([O-])OCC[N+](C)(C)C [MILTEFOSINE]			11.9	IC50 (THP-1): 31.5 µM; selectivity ratio [6]: 2.64
COC(=O)c1cc2c([nH]c3ccc(NC(=O)c4ccc5ccccc5c4)cc32)c(C)n1	Insoluble	Nd(Insoluble)		
COC(=O)c1cc2c([nH]c3ccc(NC(=O)c4ccc(C(C)(C)C)cc4)cc32)c(C)n1			68	Activity (MCF7 [2]): Active; IC50 (HepG2): 3.65 µM; IC50 (HeLa): 3.59 µM; Activity (A549 [3]): Active; IC50 (L132): 3.26 µM; IC50 (MCF7 [4]): 4.17 µM; IC50 (THP-1): 32 µM; selectivity ratio [6]: 0.47; IC50 (A549 [5]): 4.72 µM
COC(=O)c1cc2c([nH]c3ccc(NC(=O)c4ccc(OC)cc4)cc32)c(C)n1	Insoluble	Nd(Insoluble)		
COC(=O)c1cc2c([nH]c3ccc(NC(=O)c4ccc(C(F)(F)F)cc4)cc32)c(C)n1	Insoluble	Nd(Insoluble)		
COC(=O)c1cc2c([nH]c3ccc(NC(=O)c4ccccc4)cc32)c(C)n1			> 100	
COC(=O)c1cc2c([nH]c3ccc(NC(=O)c4ccc(C)cc4)cc32)c(C)n1	Insoluble	Nd(Insoluble)		
COC(=O)c1cc2c([nH]c3ccc(NC(=O)COc4ccccc4)cc32)c(C)n1	Insoluble	Nd(Insoluble)		
COC(=O)c1cc2c([nH]c3ccc(N)cc32)c(C)n1			> 100	
COC(=O)c1cc2c([nH]c3ccc(NC(=O)c4ccccc4C(F)(F)F)cc32)c(C)n1			> 100	
COC(=O)c1cc2c([nH]c3ccc(NC(=O)c4cc(OC)c(OC)c(OC)c4)cc32)c(C)n1			100	
COC(=O)c1cc2c([nH]c3ccc(NC(C)=O)cc32)c(C)n1			> 100	
COC(=O)c1cc2c([nH]c3ccc([N+](=O)[O-])cc32)c(C)n1			> 100	
COC(=O)c1cc2c([nH]c3ccc(NC(=O)c4cc(C)oc4C)cc32)c(C)n1			> 100	
CC(=O)O[C@@]12CO[C@@H]1C[C@H](O)[C@@]1(C)C(=O)[C@H](O)C3=C(C)[C@@H](OC(=O)[C@H](O)[C@@H](NC(=O)OC(C)(C)C)c4ccccc4)C[C@@](O)([C@@H](OC(=O)c4ccccc4)[C@H]21)C3(C)C [DOCETAXEL ANHYDROUS]				IC50 (HepG2): 2.86 µM; IC50 (HeLa): 3.23 µM; IC50 (L132): 1.68 µM; IC50 (MCF7 [4]): 3.6 µM; IC50 (A549 [5]): 3.41 µM
COC(=O)c1cc2c([nH]c3ccc(NC(=O)/C=C/c4ccccc4)cc32)c(C)n1	Insoluble	Nd(Insoluble)		
COC(=O)c1cc2c([nH]c3ccc(NC(=O)c4ccco4)cc32)c(C)n1			> 100	
COC(=O)c1cc2c([nH]c3ccc(NC(=O)C4CCCCC4)cc32)c(C)n1			23.5	IC50 (THP-1): 77 µM; selectivity ratio [6]: 3.27
COCC(=O)Nc1ccc2[nH]c3c(C)nc(C(=O)OC)cc3c2c1			> 100	
COc1ccc2[nH]c3cnccc3c2c1Br				IC50 [8]: 1 µM
COC(=O)c1cc2c([nH]c3ccc(NC(=O)c4ccc(Br)cc4)cc32)c(C)n1	Insoluble	Nd(Insoluble)		
